According to ChEMBL document CHEMBL4266017, “Colony-wise Analysis of a Theonella swinhoei Marine Sponge with a Yellow Interior Permitted the Isolation of Theonellamide I” (J Nat Prod, 2018):

System: HeLa
Assay: Cytotoxicity against human HeLa cells assessed as decrease in cell viability after 72 hrs by XTT assay
Type: functional, cell-based

Which IC50 does the source give for `CC(/C=C/c1ccccc1)=C\[C@H](O)[C@@H]1CC(=O)N[C@@H](CO)C(=O)N[C@H]2C[n+]3cc(n([C@@H]4OC[C@H](O)[C@H](O)[C@H]4O)c3)C[C@H](NC(=O)CCC[C@@H](C(=O)[O-])NC(=O)[C@@H](O)CNC(=O)[C@H](Cc3ccc(Br)cc3)NC(=O)[C@H]([C@@H](O)C(N)=O)NC(=O)[C@H](CC(N)=O)NC2=O)C(=O)N[C@@H]([C@H](C)O)C(=O)N[C@@H](CO)C(=O)N[C@@H](Cc2ccccc2)C(=O)N1` here?
Its IC50 is 1900 nM.
